Laboratory results from patent publication US20240300976A1, “COMPOUNDS AS MODULATORS OF ENDOPLASMIC RETICULUM AMINOPEPTIDASE 1 (ERAP1)” (GREY WOLF THERAPEUTICS LIMITED, priority 2020, published 2024).

Target: T1, ERAP1 (Homo sapiens, UniProt Q9NZ08)
T1 construct: Purified ERAP1(37-941)-10His (ERAP1); 10His (C)
Assay: ERAP1 mediated hydrolysis of an amide substrate (10-mer inhibition assay), biochemical system
Settings: 10-mer substrate, incubated at 23° C. for 1 h, excitation 279 nm and emission 355 nm; read-out: IC50 vs Decapeptide WRVYEKC(Dnp)ALK-acid (where Dnp is Dinitrophenyl maleimide) (10-mer)
Excerpt: This peptide has minimal fluorescence as the N-terminal tryptophan residue's fluorescence is quenched by the dinitrophenol (DNP) residue within the peptide. However, as ERAP1 hydrolyses the N-terminal amide bond and tryptophan is released this internal quenching is lost and the reaction is monitored by the increase in tryptophan fluorescence over the course of the assay. For the purposes of this application this assay is referred to as the “1 Omer inhibition assay” and compound potencies are calculated and expressed as 1050 as would be familiar to a person skilled in the art.
Biological Assay 1: ERAP1 Mediated Hydrolysis of an Amide Substrate Measured in a Biochemical System
• 1× Assay buffer (AB): 25 mM Bis-tris propane, 0.05% w/v Hydroxypropylmethylcellulose pH 7.75 made with Optima grade water • Decapeptide WRVYEKC(Dnp)ALK-acid (where Dnp is Dinitrophenyl maleimide) (10-mer) • L-Leucine 7-amido-4-methylcoumarin (L-AMC) • Purified ERAP1(37-941)-10His (ERAP1)
12.5 μL ERAP1 enzyme in 1×AB was combined with 250 nL test compound in DMSO. 12.5 μL of either 240 μM L-AMC in 1×AB or 100 μM 10-mer in 1×AB was added to the reaction and incubated at 23° C. for 1 h. For detection, plates were read at excitation 365 nm and emission 442 nm (L-AMC) or excitation 279 nm and emission 355 nm (10-mer). Compound IC50 was determined using a 4-parameter equation.

T1 sequence (Q9NZ08 37-941): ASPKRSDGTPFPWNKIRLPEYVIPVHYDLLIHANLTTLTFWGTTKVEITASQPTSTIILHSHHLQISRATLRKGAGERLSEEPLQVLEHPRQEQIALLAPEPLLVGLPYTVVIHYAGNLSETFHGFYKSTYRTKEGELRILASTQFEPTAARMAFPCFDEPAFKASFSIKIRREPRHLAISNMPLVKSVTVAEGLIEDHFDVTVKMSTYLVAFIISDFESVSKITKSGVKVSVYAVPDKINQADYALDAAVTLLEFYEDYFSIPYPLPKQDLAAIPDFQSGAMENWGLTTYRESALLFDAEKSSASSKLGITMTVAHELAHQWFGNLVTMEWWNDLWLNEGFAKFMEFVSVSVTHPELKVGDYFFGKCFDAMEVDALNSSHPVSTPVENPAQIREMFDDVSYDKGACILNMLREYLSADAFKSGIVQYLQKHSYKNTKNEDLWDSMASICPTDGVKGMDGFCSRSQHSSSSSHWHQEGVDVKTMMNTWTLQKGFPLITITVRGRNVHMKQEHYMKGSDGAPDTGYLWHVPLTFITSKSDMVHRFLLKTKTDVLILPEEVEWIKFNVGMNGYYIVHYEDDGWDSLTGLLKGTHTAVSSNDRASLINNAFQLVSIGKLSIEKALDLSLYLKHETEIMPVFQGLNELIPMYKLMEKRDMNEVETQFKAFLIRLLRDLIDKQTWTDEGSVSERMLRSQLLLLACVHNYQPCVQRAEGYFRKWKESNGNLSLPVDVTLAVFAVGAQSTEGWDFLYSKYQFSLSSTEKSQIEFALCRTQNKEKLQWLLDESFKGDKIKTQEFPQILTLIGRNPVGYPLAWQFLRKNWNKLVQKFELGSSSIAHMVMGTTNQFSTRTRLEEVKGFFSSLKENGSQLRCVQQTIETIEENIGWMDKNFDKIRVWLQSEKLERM

Row | SMILES | IC50 [µM]
1 | CS(=O)(=O)c1cc2c(cc1F)N1CCCCC1CCCOc1ccc(C(=O)O)cc1S(=O)(=O)N2 (racemic) [Example 51, 3-fluoro-2-(methylsulfonyl)-6,7,8,9,9a,10,11,12-octahydro-19H-dibenzo[b,f]pyrido[1,2-h][1]oxa[4]thia[5,8]diazacyclododecine-16-carboxylic acid 18,18-dioxide] | 0.25 to 1
2 | N#Cc1cc2c(cc1Cl)N1CCCCC1CNCCOc1ccc(C(=O)O)cc1S(=O)(=O)N2 (racemic) [Example 66, 3-chloro-2-cyano-7,8,9,9a,10,11,12,13-octahydro-6H, 20H-dibenzo[b,f]pyrido[1,2-h][1]oxa[4]thia[5,8,11]triazacyclotridecine-17-carboxylic acid 19,19-dioxide] | > 1
3 | N#Cc1ccc2c(c1)NS(=O)(=O)c1cc(C(=O)O)ccc1OCCC1CCCCN21 (single isomer, unassigned) [Example 6, 2-cyano-7,8,9,9a,10,11-hexahydro-6H, 18H-dibenzo[b,f]pyrido[1,2-h][1]oxa[4]thia[5,8]diazacycloundecine-15-carboxylic acid 17,17-dioxide] | > 1
4 | N#Cc1ccc2c(c1)NS(=O)(=O)c1cc(C(=O)O)ccc1OCCC1CCCCN21 (single isomer, unassigned) [Example 7, 2-cyano-7,8,9,9a,10,11-hexahydro-6H, 18H-dibenzo[b,f]pyrido[1,2-h][1]oxa[4]thia[5,8]diazacycloundecine-15-carboxylic acid 17,17-dioxide] | > 1
5 | N#Cc1ccc2c(c1)NS(=O)(=O)c1cc(C(=O)O)ccc1OCC1CCCCN21 (single isomer, unassigned) [Example 11, 8-cyano-12,13,14,15,15a,16-hexahydro-6H-dibenzo[b,f]pyrido[1,2-h][1,4,5,8]oxathiadiazecine-3-carboxylic acid 5,5-dioxide] | 0.25 to 1
6 | N#Cc1ccc2c(c1)NS(=O)(=O)c1cc(C(=O)O)ccc1OCCCCC1CCCCN21 (single isomer, unassigned) [Example 12, 2-cyano-7,8,9,9a,10,11,12,13-octahydro-6H,20H-dibenzo[b,f]pyrido[1,2-h][1]oxa[4]thia[5,8]diazacyclotridecine-17-carboxylic acid 19,19-dioxide] | 0.25 to 1
7 | N#Cc1cc2c(cc1Cl)N1CCCCC1COc1ccc(C(=O)O)cc1S(=O)(=O)N2 (single isomer, unassigned) [Example 16, 9-chloro-8-cyano-12,13,14,15,15a,16-hexahydro-6H-dibenzo[b,f]pyrido[1,2-h][1,4,5,8]oxathiadiazecine-3-carboxylic acid 5,5-dioxide] | > 1
8 | CS(=O)(=O)c1ccc2c(c1)NS(=O)(=O)c1cc(C(=O)O)ccc1OCC1CCCCN21 (single isomer, unassigned) [Example 20, 8-(methylsulfonyl)-12,13,14,15,15a,16-hexahydro-6H-dibenzo[b,f]pyrido[1,2-h][1,4,5,8]oxathiadiazecine-3-carboxylic acid 5,5-dioxide] | > 1
9 | N#Cc1ccc2c(c1)NS(=O)(=O)c1cc(C(=O)O)ccc1OC/C=C/CC1CCCCN21 (single isomer, unassigned) [Example 33, (E)-2-cyano-7,8,9,9a,10,13-hexahydro-6H, 20H-dibenzo[b,f]pyrido[1,2-h][1]oxa[4]thia[5,8]diazacyclotridecine-17-carboxylic acid 19,19-dioxide] | > 1

Further lines, results first:

Row | IC50 [µM] | SMILES
10 | < 0.25 | N#Cc1cc2c(cc1Cl)N1CCCCC1COCCOc1ccc(C(=O)O)cc1S(=O)(=O)N2 (racemic) [Example 65, 3-chloro-2-cyano-6,7,8,9,9a,10,12,13-octahydro-20H-dibenzo[e,i]pyrido[1,2-k][1,4]dioxa[7]thia[8,11]diazacyclotridecine-17-carboxylic acid 19,19-dioxide]
11 | < 0.25 | N#Cc1ccc2c(c1)NS(=O)(=O)c1cc(C(=O)O)ccc1OCCCC1CCCCN21 (single isomer, unassigned) [Example 8, 2-cyano-6,7,8,9,9a,10,11,12-octahydro-19H-dibenzo[b,f]pyrido[1,2-h][1]oxa[4]thia[5,8]diazacyclododecine-16-carboxylic acid 18,18-dioxide]
12 | < 0.25 | N#Cc1ccc2c(c1)NS(=O)(=O)c1cc(C(=O)O)ccc1OCCCC1CCCCN21 (single isomer, unassigned) [Example 9, 2-cyano-6,7,8,9,9a,10,11,12-octahydro-19H-dibenzo[b,f]pyrido[1,2-h][1]oxa[4]thia[5,8]diazacyclododecine-16-carboxylic acid 18,18-dioxide]
13 | < 0.25 | N#Cc1ccc2c(c1)NS(=O)(=O)c1cc(C(=O)O)ccc1OCC1CCCCN21 (single isomer, unassigned) [Example 10, 8-cyano-12,13,14,15,15a,16-hexahydro-6H-dibenzo[b,f]pyrido[1,2-h][1,4,5,8]oxathiadiazecine-3-carboxylic acid 5,5-dioxide]
14 | < 0.25 | N#Cc1ccc2c(c1)NS(=O)(=O)c1cc(C(=O)O)ccc1OCCCCC1CCCCN21 (single isomer, unassigned) [Example 13, 2-cyano-7,8,9,9a,10,11,12,13-octahydro-6H,20H-dibenzo[b,f]pyrido[1,2-h][1]oxa[4]thia[5,8]diazacyclotridecine-17-carboxylic acid 19,19-dioxide]
15 | < 0.25 | N#Cc1cc2c(cc1Cl)N1CCCCC1COc1ccc(C(=O)O)cc1S(=O)(=O)N2 (single isomer, unassigned) [Example 17, 9-chloro-8-cyano-12,13,14,15,15a,16-hexahydro-6H-dibenzo[b,f]pyrido[1,2-h][1,4,5,8]oxathiadiazecine-3-carboxylic acid 5,5-dioxide]
16 | < 0.25 | CS(=O)(=O)c1ccc2c(c1)NS(=O)(=O)c1cc(C(=O)O)ccc1OCC1CCCCN21 (single isomer, unassigned) [Example 19, 8-(methylsulfonyl)-12,13,14,15,15a,16-hexahydro-6H-dibenzo[b,f]pyrido[1,2-h][1,4,5,8]oxathiadiazecine-3-carboxylic acid 5,5-dioxide]
17 | < 0.25 | N#Cc1cc2c(cc1Cl)N1CCCCC1CCCCOc1ccc(C(=O)O)cc1S(=O)(=O)N2 (single isomer, unassigned) [Example 26, 3-chloro-2-cyano-7,8,9,9a,10,11,12,13-octahydro-6H, 20H-dibenzo[b,f]pyrido[1,2-h][1]oxa[4]thia[5,8]diazacyclotridecine-17-carboxylic acid 19,19-dioxide]
18 | < 0.25 | N#Cc1cc2c(cc1Cl)N1CCCCC1CCCCOc1ccc(C(=O)O)cc1S(=O)(=O)N2 (single isomer, unassigned) [Example 27, 3-chloro-2-cyano-7,8,9,9a,10,11,12,13-octahydro-6H, 20H-dibenzo[b,f]pyrido[1,2-h][1]oxa[4]thia[5,8]diazacyclotridecine-17-carboxylic acid 19,19-dioxide]
19 | < 0.25 | N#Cc1ccc2c(c1)NS(=O)(=O)c1cc(C(=O)O)ccc1OC/C=C/CC1CCCCN21 (single isomer, unassigned) [Example 32, (E)-2-cyano-7,8,9,9a,10,13-hexahydro-6H, 20H-dibenzo[b,f]pyrido[1,2-h][1]oxa[4]thia[5,8]diazacyclotridecine-17-carboxylic acid 19,19-dioxide]
